Experiment [1] concerns the target T1, TLR9 (Homo sapiens, UniProt Q9NR96).
T1 construct: PBMCs were isolated from unpurified buffy coat from healthy human donors; host or cells: primary human PBMCs
T1 sequence (Q9NR96 26-1032): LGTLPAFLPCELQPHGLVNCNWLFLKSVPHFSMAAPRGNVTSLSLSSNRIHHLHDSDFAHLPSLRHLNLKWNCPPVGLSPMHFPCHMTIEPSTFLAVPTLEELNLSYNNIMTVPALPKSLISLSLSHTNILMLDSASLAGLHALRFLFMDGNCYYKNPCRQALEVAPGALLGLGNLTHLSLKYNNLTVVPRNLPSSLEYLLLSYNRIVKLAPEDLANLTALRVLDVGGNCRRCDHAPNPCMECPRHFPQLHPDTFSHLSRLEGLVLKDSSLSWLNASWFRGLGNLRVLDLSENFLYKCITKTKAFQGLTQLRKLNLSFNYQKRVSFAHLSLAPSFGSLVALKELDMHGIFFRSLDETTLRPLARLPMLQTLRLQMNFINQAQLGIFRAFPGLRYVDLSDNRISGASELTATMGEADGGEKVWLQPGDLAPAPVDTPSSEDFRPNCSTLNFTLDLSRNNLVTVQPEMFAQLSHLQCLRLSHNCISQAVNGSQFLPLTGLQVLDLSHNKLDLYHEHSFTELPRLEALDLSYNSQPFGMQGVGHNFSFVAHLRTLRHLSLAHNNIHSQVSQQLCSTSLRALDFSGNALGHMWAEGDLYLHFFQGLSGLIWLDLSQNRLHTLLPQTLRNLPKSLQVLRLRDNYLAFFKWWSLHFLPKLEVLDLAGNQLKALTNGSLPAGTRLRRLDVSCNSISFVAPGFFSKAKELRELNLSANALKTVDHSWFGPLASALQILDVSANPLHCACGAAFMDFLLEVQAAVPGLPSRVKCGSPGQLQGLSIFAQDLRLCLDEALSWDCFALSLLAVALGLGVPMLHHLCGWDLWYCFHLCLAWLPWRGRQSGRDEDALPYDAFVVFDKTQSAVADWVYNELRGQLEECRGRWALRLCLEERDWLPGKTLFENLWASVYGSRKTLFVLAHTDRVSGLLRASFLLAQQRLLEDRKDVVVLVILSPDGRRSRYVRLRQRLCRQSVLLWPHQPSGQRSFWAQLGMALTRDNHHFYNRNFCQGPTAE
Kind of experiment: TLR9 antagonist assay in human PBMCs (ODN2395, IFNα ELISA). Conditions: human PBMC, 0.25 μM ODN2395, IFNα readout. The class given is cell-based. As to the method:
(§1) PBMCs were isolated from unpurified buffy coat from healthy human donors (Blood Research Components, LLC). For antagonist testing, cells were plated on 96-well U-bottom plates at 3×10^6 cells/ml. Antagonist compounds were added to cells in duplicate wells and titrated from 10 μM in 1:3 serial dilutions (8 antagonist concentrations tested in total). After approximately 30 minutes, cells were stimulated with agonist compound (see table 2 for agonist concentrations). After stimulation, cells were incubated overnight at 37° C. To increase the stability of the ssRNA, 3 μg/ml DOTAP (Roche) was added to ORN1075 agonist solutions. All dilutions were made in RPMI-1640 media (Sigma, cat.# R7388)+5% human male AB sera (Sigma, cat.# H4522)+1× Penicillin/Streptomycin solution (VWR, cat.#82026-730).
(§2) TLR activity was measured in PBMCs and neutrophils by ELISA using cytokine readouts specific for the TLR of interest.
(§3) IFNα was measured as a readout for TLR7 and TLR9 activity in PBMCs stimulated with either ORN1075, or ODN2395, respectively, using a Human Pan-IFNα ELISA kit (MABTech, cat.#3425-1H-20). PBMC supernatant was diluted 1:3 in PBS+0.05% tween-20+0.1% BSA. Absorbance at 450 nm was recorded using a Molecular Devices SpectraMax340PC plate reader. The IC50 for each antagonist was subsequently calculated following the method described below.
(§4) Raw ELISA datasets for each 96-well plate, consisting of absorbance readings at […], were first imported in Microsoft Excel to calculate the average absorbance for each standard or antagonist concentration. The averaged data was then imported into SigmaPlot v.11.0 where a standard curve was calculated and used to extrapolate the relative concentration of TLR readout (TNFα, IFNα, etc.) produced. The dose-response curve of each antagonist was then plotted with SigmaPlot v.11.0 on a Log scale. Concentrations of TLR readout were converted to a percentage relative to the average maximum concentration for that ELISA plate in Microsoft Excel. The IC50 for each antagonist was then determined with the SigmaPlot regression wizard using a 4-parameter Hill equation. Each antagonist was tested in a minimum of 3 independent experiments and IC50 results were compiled and averaged using Microsoft Excel.

The target in experiment [2] is T2, TLR7 (Homo sapiens, UniProt Q9NYK1).
T2 sequence (Q9NYK1 27-1049): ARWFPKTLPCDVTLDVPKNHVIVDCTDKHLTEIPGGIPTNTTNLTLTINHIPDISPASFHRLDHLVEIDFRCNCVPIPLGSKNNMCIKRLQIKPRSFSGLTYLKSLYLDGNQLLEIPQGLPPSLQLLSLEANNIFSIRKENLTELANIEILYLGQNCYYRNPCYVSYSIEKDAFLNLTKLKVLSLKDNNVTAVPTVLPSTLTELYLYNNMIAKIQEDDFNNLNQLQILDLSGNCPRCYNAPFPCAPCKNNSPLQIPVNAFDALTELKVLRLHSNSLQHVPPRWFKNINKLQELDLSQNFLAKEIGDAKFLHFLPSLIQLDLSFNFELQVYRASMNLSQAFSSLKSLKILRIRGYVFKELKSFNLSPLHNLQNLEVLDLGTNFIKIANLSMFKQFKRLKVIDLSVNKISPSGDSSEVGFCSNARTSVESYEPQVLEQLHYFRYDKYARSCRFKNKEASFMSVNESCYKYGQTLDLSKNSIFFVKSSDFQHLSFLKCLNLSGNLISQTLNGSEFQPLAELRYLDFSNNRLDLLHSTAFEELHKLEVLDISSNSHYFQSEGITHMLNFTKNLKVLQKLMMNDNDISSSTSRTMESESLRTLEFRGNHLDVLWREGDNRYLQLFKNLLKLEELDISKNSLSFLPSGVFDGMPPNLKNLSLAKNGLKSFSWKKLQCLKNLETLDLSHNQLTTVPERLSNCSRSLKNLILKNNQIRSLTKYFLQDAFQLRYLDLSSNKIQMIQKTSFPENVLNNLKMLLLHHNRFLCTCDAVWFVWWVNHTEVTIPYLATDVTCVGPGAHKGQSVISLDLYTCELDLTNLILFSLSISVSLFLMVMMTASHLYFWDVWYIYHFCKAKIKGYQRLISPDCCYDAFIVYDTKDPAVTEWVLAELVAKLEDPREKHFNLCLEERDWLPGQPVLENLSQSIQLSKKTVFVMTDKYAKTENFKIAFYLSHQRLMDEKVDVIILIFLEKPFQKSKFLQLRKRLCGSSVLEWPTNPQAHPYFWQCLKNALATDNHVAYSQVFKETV
Kind of experiment: TLR7 antagonist assay in human PBMCs (ORN1075, IFNα ELISA). The class given is cell-based. Further details: PBMCs were isolated from unpurified buffy coat from healthy human donors; host or cells: primary human PBMCs. The conditions noted are these: human PBMC, 0.5 μM ORN1075, IFNα readout. Here is the method: as §1, §2, §3, §4
On the technique in general: ELISA stands for enzyme-linked immunosorbent assay.

What is called IC50 is the concentration needed to halve the response being measured. Turning to `CN1CCN(c2nc(NCCN3CCOCC3)c3ncc(-c4ccccc4)nc3n2)CC1` [JB6059], the IC50 in experiment [1] was found to be 0.305 µM; in experiment [2], 0.143 µM.

In the case of `CN1CCN(c2nc3nc(-c4ccccc4)nc(NCCN4CCOCC4)c3nc2OCCN2CCOCC2)CC1` [JB6116], the IC50 in experiment [1] amounted to 0.297 µM; in experiment [2], 0.081 µM.

With `CN1CCN(c2nc(NCCN3CCOCC3)c3nc(Cl)c(NCCN4CCOCC4)nc3n2)CC1` [JB6121, 6-chloro-2-(4-methylpiperazin-1-yl)-N^4,N^7-bis(2-morpholinoethyl)pteridine-4,7-diamine], the half-maximal inhibitory concentration (IC50) in experiment [1] turned out to be 0.146 µM; in experiment [2], 0.025 µM.

For `CCOc1nc2c(NCCN3CCCC3)nc(-c3ccccc3)nc2nc1N1CCN(C)CC1` [JB6131], the IC50 in experiment [1] turned out to be 0.326 µM; in experiment [2], 0.064 µM.

`CCCCNc1nc(NCCN2CCOCC2)c2nc(Cl)c(NCCN3CCOCC3)nc2n1` [JB6140]: the half-maximal inhibitory concentration (IC50) in experiment [1] came out at 0.101 µM; in experiment [2], 0.238 µM.

As for `C[C@@H]1CN(CCNc2nc3nc(N4CCN(C)CC4)nc(NCCN4C[C@@H](C)O[C@@H](C)C4)c3nc2Cl)C[C@H](C)O1` [JB6143], the IC50 amounted to 0.054 µM in experiment [1] and 0.024 µM in experiment [2].

On to `Clc1nc2c(NCCN3CCOCC3)nc(N3CCOCC3)nc2nc1NCCN1CCOCC1` [JB6147], for which the IC50 in experiment [1] stood at 8.68 µM; in experiment [2] it was 0.223 µM.

Consider `COCCN1CCN(c2nc(NCCN3CCOCC3)c3nc(Cl)c(NCCN4CCOCC4)nc3n2)CC1` [JB6160], for which the IC50 in experiment [1] turned out to be 0.06 µM; in experiment [2] it was 0.028 µM.

With `Clc1nc2c(NCCN3CCOCC3)nc(NCc3ccccc3)nc2nc1NCCN1CCOCC1` [JB6172], the IC50 in experiment [1] worked out at 0.167 µM; in experiment [2], 0.062 µM.

For `CCOc1nc2c(NCCN3CCOCC3)nc(NCc3ccccc3)nc2nc1NCCN1CCOCC1` [JB6180], the results for the IC50 in experiment [1] and in experiment [2] were 0.114 µM and 0.502 µM, respectively.

Consider `CCCCNc1nc(NCCN2CCOCC2)c2nc(SCC)c(NCCN3CCOCC3)nc2n1` [JB6185], for which the IC50 amounted to 0.061 µM in experiment [1] and 0.074 µM in experiment [2].
